pIC50: −log10 of the molar value.
Target: T1, LCK KD GST (225-509) (Homo sapiens, UniProt P06239)
T1 construct: LCK KD GST (225-509); GST
Experiment: LCK Homogenous Time Resolved Fluorescent (HTRF) kinase assay
Type: biochemical

T1 sequence (P06239 225-509): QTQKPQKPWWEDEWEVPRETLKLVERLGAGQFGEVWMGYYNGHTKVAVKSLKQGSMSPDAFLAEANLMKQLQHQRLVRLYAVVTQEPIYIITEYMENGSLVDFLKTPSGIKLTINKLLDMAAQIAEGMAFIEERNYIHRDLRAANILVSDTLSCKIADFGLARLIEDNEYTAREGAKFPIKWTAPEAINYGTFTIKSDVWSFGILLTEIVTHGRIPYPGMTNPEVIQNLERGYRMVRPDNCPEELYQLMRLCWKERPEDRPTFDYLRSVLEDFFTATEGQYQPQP

pIC50 | Compound
> 6.00 | CNc1ncnc(-c2cccnc2Oc2cc(NC(=O)c3cccc(OC(F)(F)F)c3)ccc2C)n1 [N-(4-methyl-3-((3-(4-(methylamino)-1,3,5-triazin-2-yl)-2-pyridinyl)oxy)phenyl)-3-((trifluoromethyl)oxy)benzamide]
> 6.00 | CNc1nccc(-c2cccnc2Oc2cc(C(=O)Nc3cc(C(C)(C)C)ccc3OC)ccc2C)n1 [N-(5-(1,1-dimethylethyl)-2-(methyloxy)phenyl)-4-methyl-3-((3-(2-(methylamino)-4-pyrimidinyl)-2-pyridinyl)oxy)benzamide]
> 6.00 | CNc1nccc(-c2cccnc2Oc2ccc(NC(=O)Nc3cc(C(C)(C)C)ccc3OC)cc2C)n1 [N-(5-(1,1-dimethylethyl)-2-(methyloxy)phenyl)-N′-(3-methyl-4-((3-(2-(methylamino)-4-pyrimidinyl)-2-pyridinyl)oxy)phenyl)urea]
> 6.00 | CNc1ncnc(-c2cccnc2Oc2cc(C(=O)Nc3cc(C(C)(C)C)on3)ccc2C)n1 [N-(5-(1,1-dimethylethyl)-3-isoxazolyl)-4-methyl-3-((3-(4-(methylamino)-1,3,5-triazin-2-yl)-2-pyridinyl)oxy)benzamide]
> 6.00 | CNc1nccc(-c2cccnc2Oc2ccc(NC(=O)Nc3cc(Cl)ccc3N(C)CCCN(C)C)cc2C)n1 [N-(5-chloro-2-((3-(dimethylamino)propyl)(methyl)amino)phenyl)-N′-(3-methyl-4-((3-(2-(methylamino)-4-pyrimidinyl)-2-pyridinyl)oxy)phenyl)urea]
> 6.00 | CNc1nccc(-c2cccnc2Oc2ccc(NC(=O)Nc3cc(Cl)ccc3N(C)[C@@H]3CCN(C)C3)cc2C)n1 [N-(5-chloro-2-(methyl((3R)-1-methyl-3-pyrrolidinyl)amino)phenyl)-N′-(3-methyl-4-((3-(2-(methylamino)-4-pyrimidinyl)-2-pyridinyl)oxy)phenyl)urea]
> 6.00 | CNc1nccc(-c2cccnc2Oc2ccc(NC(=O)Nc3cc(Cl)ccc3C)cc2C)n1 [N-(5-chloro-2-methylphenyl)-N′-(3-methyl-4-((3-(2-(methylamino)-4-pyrimidinyl)-2-pyridinyl)oxy)phenyl)urea]
> 6.00 | COc1ccc(C2CCCCC2)cc1NC(=O)c1ccc(C)c(Oc2ncccc2-c2ncnc(NCCO)n2)c1 [N-(5-cyclohexyl-2-(methyloxy)phenyl)-3-((3-(4-((2-hydroxyethyl)amino)-1,3,5-triazin-2-yl)-2-pyridinyl)oxy)-4-methylbenzamide]
> 6.00 | COc1ccc(C2CCCCC2)cc1NC(=O)c1ccc(C)c(Oc2ncccc2-c2ncnc(NCCCCN(C)C)n2)c1 [N-(5-cyclohexyl-2-(methyloxy)phenyl)-3-((3-(4-((4-(dimethylamino)butyl)amino)-1,3,5-triazin-2-yl)-2-pyridinyl)oxy)-4-methylbenzamide]
> 6.00 | CCNc1ncnc(-c2cccnc2Oc2cc(C(=O)Nc3cc(C4CCCCC4)ccc3OC)ccc2C)n1 [N-(5-cyclohexyl-2-(methyloxy)phenyl)-3-((3-(4-(ethylamino)-1,3,5-triazin-2-yl)-2-pyridinyl)oxy)-4-methylbenzamide]
> 6.00 | CNc1cc(-c2cccnc2Oc2cc(C(=O)Nc3cc(C4CCCCC4)ccc3OC)ccc2C)ccn1 [N-(5-cyclohexyl-2-(methyloxy)phenyl)-4-methyl-3-((2′-(methylamino)-3,4′-bipyridin-2-yl)oxy)benzamide]
> 6.00 | CNc1nccc(-c2cccnc2Oc2cc(C(=O)Nc3cc(C4CCCCC4)ccc3OC)ccc2C)n1 [N-(5-cyclohexyl-2-(methyloxy)phenyl)-4-methyl-3-((3-(2-(methylamino)-4-pyrimidinyl)-2-pyridinyl)oxy)benzamide]
> 6.00 | CNc1ncnc(-c2cccnc2Oc2cc(C(=O)Nc3cc(C4CCCCC4)ccc3OC)ccc2C)n1 [N-(5-cyclohexyl-2-(methyloxy)phenyl)-4-methyl-3-((3-(4-(methylamino)-1,3,5-triazin-2-yl)-2-pyridinyl)oxy)benzamide]
> 6.00 | COc1ccc(C2CCCCC2)cc1NC(=O)c1ccc(C)c(Oc2ncccc2-c2ccncn2)c1 [N-(5-cyclohexyl-2-(methyloxy)phenyl)-4-methyl-3-((3-(4-pyrimidinyl)-2-pyridinyl)oxy)benzamide]
> 6.00 | CNc1nccc(-c2cccnc2Oc2ccc(F)c(C(=O)Nc3cc(C4CC4)ccc3N(C)CCCN(C)C)c2)n1 [N-(5-cyclopropyl-2-((3-(dimethylamino)propyl)(methyl)amino)phenyl)-2-fluoro-5-((3-(2-(methylamino)-4-pyrimidinyl)-2-pyridinyl)oxy)benzamide]
> 6.00 | Cc1ccc(C(=O)N[C@H](C)C2CCCCC2)cc1Nc1ncccc1-c1ccncn1 [N-((1R)-1-cyclohexylethyl)-4-methyl-3-((3-(4-pyrimidinyl)-2-pyridinyl)amino)benzamide]

Source: patent publication US8476434B2, “Protein kinase modulators and method of use” (Amgen Inc., priority 2004, dated 2013)
